Data published in patent US6126909A, “Process and apparatus for the production of BI-212 and a use thereof” (Arch Development Corporation, priority 1999, dated 2000).

Key:
[1] = tested on: microscopic disease (ovarian carcinoma); settings: stage I and stage II patients; cited from earlier work
[2] = tested on: NIH:OVCAR-3 cells (spheroids); assay: In vitro irradiation survival, spheroids; format: cell-based, human; settings: OVCAR-3 spheroids
Method: (§1) In vitro studies were carried out using three well known cell lines, the cells from which were exposed to radiation from: (1) an X-ray source; (2) P-32 chromic phosphate; and (3) Bi-212 chloride. The three cell lines that were used are V-79, which is a Chinese hamster lung fibroblast, Ehrlich-Lettre Ascites carcinoma (ATCC CCL 77), which is an ascites producing -tumor, and NIH:OVCAR-3 (ATCC HTB 161), which is a human ovarian adenocarcinoma. These well known cell lines are predictive of what happens in vivo. The cells were grown as monolayers and into spheroid formations and subsequently irradiated, as described herein.
(§2) The V-79 cells were maintained under exponential growth conditions in minimal essential medium (MEM) supplemented with 10 percent fetal bovine serum. The Ehrlich-Lettre Ascites carcinoma cells were maintained in 90 percent NCTC 109 supplemented with 10 percent fetal bovine serum. The NIH:OVCAR-3 cells were maintained in RPMI 1640 and 10 percent fetal bovine serum.
To initiate the formation of the spheroids, cells at a concentration of about 500,000 cells per flask were seeded onto petri dishes base-cooked with 1 percent agar MEM without serum. After spheroids having a size of about 20 micrometers (μm) formed, the spheroids were transferred to spinner bottles and maintained for two to three weeks at a temperature of 37° C. in a CO2 incubator until they grew to 10 to 1000 μm. Prior to irradiation, the spheroids were sized and separated using a spheroid separation column.
(§3) Cells from each of the cell lines were irradiated by subjecting the cells to X-ray radiation, P-32, and Bi-212. The X-ray source that was used is a General Electric 250 kvp Maxitron, 26 […] (mA) (HVL 1.5 mm Cu) operated at a dose rate of 1.11 Greys per minute (Gy/min). The cells, in both monolayer and spheroid form were exposed at room temperature and then immediately plated for survival.
(§4) Cells in both monolayer and spheroid were exposed to P-32 chromic phosphate. The radiation dose to each sample was calculated as: […]
(§5) After exposure, the cells were washed in phosphate-buffered saline (PBS) and immediately plated for survival.
The cell lines were also irradiated using Bi-212. […] The filter was purged with 1 ml of distilled deionized water, and the radioactivity was assayed using a calibrated 3×3-in. […]
(§6) Cells were exposed over a period of four hours. The dose (D) per microCurie was calculated and corrected for decay as follows: [formula] where V=volume in milliliters, and […]
(§7) Following plating, survival measurements were taken for each of the irradiated cell samples. […] The plates were then stained with crystal violet and colonies greater than 50 cells were scored. The surviving fraction was then determined.
Intrinsic radiosensitivity (Do) was calculated from the survival curves. […]

V-79 cells = assay: In vitro irradiation survival (clonogenic), monolayer; format: cell-based, Chinese hamster; settings: V-79 monolayer
Method: as §1, §2, §3, §4, §5
(§8) The cell lines were also irradiated using Bi-212. Bismuth-212 was eluted from a generator as described in the aforementioned patent to Atcher et al., which was a cation-exchange column supporting Ra-224, with 1 ml of 0.15 N HI, and the generator was purged with 2 ml of distilled deionized water. […] The filter was purged with 1 ml of distilled deionized water, and the radioactivity was assayed using a calibrated 3×3-in. […]
as §6, §7
(§9) Intrinsic radiosensitivity (Do) was calculated from the survival curves. […] Relative biological effectiveness (RBE) was determined as the ratio of the absorbed dose of X-ray to that of alpha radiation to produce the same degree of biological effect.

NIH:OVCAR-3 cells = assay: as above; format: cell-based, human; settings: OVCAR-3 monolayer
Method: as §1, §2, §3, §4, §5, §8, §6, §7, §9

microscopic carcinoma = settings: in vivo; cited from earlier work
[3] = dose increment reducing survival to 37 percent

SMILES | Five-year survival rate [1] [%] | D0 (intrinsic radiosensitivity) ([2]; dose to 37 percent survival) [Gy] | Relative biological effectiveness (RBE) ([2]; relative to X-ray) | D0 (intrinsic radiosensitivity) (V-79 cells; [3]) [Gy] | Relative biological effectiveness (RBE) (V-79 cells; relative to X-ray) | D0 (intrinsic radiosensitivity) (NIH:OVCAR-3 cells; [3]) [Gy] | Relative biological effectiveness (RBE) (NIH:OVCAR-3 cells; relative to X-ray) | Treatment and eradication of microscopic carcinoma (microscopic carcinoma)
O=[32P]([O-])([O-])[O-].[Cr+3] [P-32 chromic phosphate, chromic phosphate (P-32), reference compound] | 81 | 1.1 | 1.07 | 1.25 | 1.63 | 1.40 | 1.43 | 
[212Pb] [Pb-212, lead-212] |  |  |  |  |  |  |  | effective in the treatment and eradication of microscopic carcinoma
[211At] [At-211, astatine-211] |  |  |  |  |  |  |  | effective in the treatment and eradication of microscopic carcinoma
